The subject of experiment [1] is bfGnRHR-3. The experiment can be described thus: Ligand-receptor binding assay, I125-GnRH-2 competition, membranes of GH3 cells expressing bfGnRHR-3. On the set-up: species or system bullfrog. To be noted: log of IC50 (negative values); competition with I125-GnRH-2, 4° C., 16 hours. On the procedure:
To determine the binding affinity between GnRH and GnRH receptors, GnRH-2 was radiolabeled with I^125. The GH3 cells expressing bfGnRHR-1, bfGnRHR-2, bfGnRHR-3, and rat GnRHR constructed in Example 2-3 above were cultured on 100-mm dishes. After 48 hours, the cells were homogenized to obtain cellular membranes, which were then dissolved in binding buffer (40 mM Tris, pH 7.4, 2 mM MgCl2). 20 μg of membrane proteins were reacted with I^125-GnRH-2 at 4° C. for 16 hours. […] After the reaction was completed, 1^125-GnRH-2 bound to the receptors was filtered using a Brandel harvester, and cpm was measured using a γ-counter.
The GH3 cells expressing bfGnRHR-3 obtained from Example 6-1 above were treated with l^125GnRH-2 and GnRH-2 agonists and antagonists at various concentrations to determine the binding affinity of GnRH-2 agonists and antagonists toward the receptors.

For the next experiment, the system named is bfGnRHR-2. Put plainly: Inhibition of GnRH-2-induced IP production, GH3 cells expressing bfGnRHR-2. In kind it is cell-based, bullfrog. To be noted: log of IC50 (negative values); half-maximal inhibition of IP production induced by GnRH-2 (1 nM, 10 nM elsewhere in the source). On the procedure: (§1) GH3 cell lines were obtained from the Cell Line Bank at the Cancer Research Center, Seoul National University College of Medicine, located in Seoul, Republic of Korea. The GH3 cell lines were infected with retroviruses comprising genes encoding bfGnRHR-1, bfGnRHR-2, and bfGnRHR-3 which are bullfrog GnRH receptors, and rat GnRHR, and cell lines expressing each of these receptors were obtained. The GH3 cells expressing bfGnRHR-1, bfGnRHR-2, bfGnRHR-3, and rat GnRHR were cultured on 12-well plates. After 24 hours, the cells were cultured again for 24 hours in a media containing no inositol, to which H^3-myoinositol was added. The resultant cells were washed with buffer A (140 mM NaCl, 20 mM HEPES, 4 mM KCl, 8 mM D-Glucose, 1 mM MgCl2, 1 mM CaCl2, 1 mg/ml BSA) and then cultured in buffer A containing 10 mM LiCl at 37°C. for 30 minutes. Thereafter, they were treated with GnRH having a suitable concentration, cultured at 37° C. for another 30 minutes, and then the media was eliminated. The cells were treated with 10 mM of ice-cold formic acid to terminate the reaction, and the cell extracts were mixed with Dowex anionic exchange resins. These resins were washed with distilled water, IP was extracted with 1 M ammonium formate/0.1 M formic acid, and cpm (count per minute) was determined.

Experiment [2] has as its system Primate GnRH-2 receptor. Put plainly: Inhibition of GnRH-2-induced c-fos-luc luciferase activity, cells expressing Primate GnRH-2 receptor. In kind it is cell-based, Primates. To be noted: for effect on luciferase activity induced by GnRH-2: GnRH-2 and antagonist treated at the same time. As to the method: Complimentary DNA (cDNA) for a Primate GnRH-2 receptor was obtained from a CV-1 cell genome. […] Plasmids having Primate GnRH-2 receptors where transfected into CV-1 cells. To assay the activity of the receptor, c-fos-luc where a luciferase gene is fused with a c-fos promoter was co-transfected as a probe gene. After 48 hours from transfection, the cells were treated with GnRH-2 agonists and then the activity of luciferase was assayed (Seong et al., Endocrinology vol 144 2003, 454-466). In the same manner as in 2-3 above, Primate GnRH-2 receptors were co-transfected along with c-fos-luc reporter genes, and after 48 hours, GnRH-2 and GnRH-2 antagonists were treated thereinto at the same time and then the effect of GnRH-2 antagonists was observed. […] Log IC50 value by antagonists is an average value of experiments that were conducted independently three times. ND stands for “not detected” which means that there are no inhibitory functions.

Experiment [3] deals with bfGnRHR-3. Put plainly: Inhibition of GnRH-2-induced IP production, GH3 cells expressing bfGnRHR-3. It is filed as cell-based, bullfrog. The following applies: log of IC50 (negative values); half-maximal inhibition of IP production induced by GnRH-2 (1 nM, 10 nM elsewhere in the source). On the procedure:
as §1

Experiment [4] concerns Primate GnRH-2 receptor. Put plainly: c-fos-luc luciferase activation by agonists, CV-1 cells expressing Primate GnRH-2 receptor. To be noted: for Log EC50: log of EC50 (negative values), luciferase activation, average of three independent experiments. It is filed as cell-based, Primates. On the procedure: Complimentary DNA (cDNA) for a Primate GnRH-2 receptor was obtained from a CV-1 cell genome. […] Plasmids having Primate GnRH-2 receptors where transfected into CV-1 cells. To assay the activity of the receptor, c-fos-luc where a luciferase gene is fused with a c-fos promoter was co-transfected as a probe gene. After 48 hours from transfection, the cells were treated with GnRH-2 agonists and then the activity of luciferase was assayed (Seong et al., Endocrinology vol 144 2003, 454-466). […] Of the GnRH-2 receptors, [[…]]GnRH-2 performed excellently, showing effects about 3 times that of a wild-type ligand, GnRH-2. […] When analogs where the 5th, 7th, and 8th amino acids of [[…]]GnRH-2 are substituted were used, it was observed that their effects were weaker than [[…]]GnRH-2, and therefore it can be seen that it is important to maintain His, Trp, and Tyr that are found at the 5th, 7th, and 8th positions of GnRH-2 as they are (FIG. 3b). Log EC50 values and Emax values of GnRH-2 agonists are average values of experiments that were conducted independently three times. Ratio^a represents the ratio of EC50 values of other GnRH analogs based on EC50 values of GnRH-2.

Where a SMILES comes first, the peptide text is derived from it. [ ]: non-standard residue; d: D form. dPhe(4-Cl) = N[C@H](Cc1ccc(Cl)cc1)C(=O)O; d2Nal = N[C@H](Cc1ccc2ccccc2c1)C(=O)O; dCit = NC(=O)NCCC[C@@H](N)C(=O)O; d3Pal = N[C@H](Cc1cccnc1)C(=O)O; pGlu = O=C1CC[C@@H](C(=O)O)N1

As for `CC(=O)N[C@H](Cc1ccc2ccccc2c1)C(=O)N[C@H](Cc1ccc(Cl)cc1)C(=O)N[C@H](Cc1cccnc1)C(=O)N[C@@H](CO)C(=O)N[C@@H](Cc1ccc(O)cc1)C(=O)N[C@H](CCCNC(N)=O)C(=O)N[C@@H](CC(C)C)C(=O)N[C@@H](CCCNC(=N)N)C(=O)N1CCC[C@H]1C(=O)N[C@H](C)C(N)=O` [Cetrorelix, Ac-D-2Nal-(4Cl)-D-Phe-D-3Pal-Ser-Tyr-D-Cit-Leu-Arg-Pro-D-Ala-NH2, reference compound] (Ac-[d2Nal][dPhe(4-Cl)][d3Pal]SY[dCit]LRP[dA]-NH2), in the experiment with bfGnRHR-3 [1], the “Binding affinity (log IC50 value)” value is recorded as −7.11 ± 0.08. For the same compound, the entries for the “Log IC50” value in the experiment with bfGnRHR-2 and in the experiment on bfGnRHR-3 [3] were −6.43 ± 0.11 and −6.28 ± 0.13, respectively. The “effect on luciferase activity induced by GnRH-2” value (shortened to “effect … by GnRH-2”) with Primate GnRH-2 receptor [2] is recorded as “no effect”.
In the case of `CC(=O)N[C@H](Cc1ccc2ccccc2c1)C(=O)N[C@H](Cc1ccc(Cl)cc1)C(=O)N[C@H](Cc1cccnc1)C(=O)N[C@@H](CO)C(=O)N[C@@H](Cc1c[nH]cn1)C(=O)N[C@H](CCCNC(N)=O)C(=O)N[C@@H](Cc1c[nH]c2ccccc12)C(=O)N[C@@H](Cc1ccc(O)cc1)C(=O)N1CCC[C@H]1C(=O)N[C@H](C)C(N)=O` [Trptorelix-2, Ac-D2Nal-(4Cl)D-Phe-D-3Pal-Ser-His-DCit-Trp-Tyr-Pro-DAla-NH2] (Ac-[d2Nal][dPhe(4-Cl)][d3Pal]SH[dCit]WYP[dA]-NH2), the “effect … by GnRH-2” value with Primate GnRH-2 receptor [2] is “reduced in a concentration-dependent manner”. Besides, the “Log IC50” value in the experiment with Primate GnRH-2 receptor [2] (log of IC50 (negative values), reporter c-fos-luc, GnRH-2-induced luciferase, average of three experiments, ND = not detected, no inhibitory functions) was −6.19 ± 0.12.
“Ac-D2Nal-(4Cl)D-Phe-D-3Pal-Ser-Tyr-DCit-Trp-Leu-Pro-DAla-NH2 (Ac-[d2Nal][dPhe(4-Cl)][d3Pal]SY[dCit]WLP[dA]-NH2; SMILES CC(=O)N[C@H](Cc1ccc2ccccc2c1)C(=O)N[C@H](Cc1ccc(Cl)cc1)C(=O)N[C@H](Cc1cccnc1)C(=O)N[C@@H](CO)C(=O)N[C@@H](Cc1ccc(O)cc1)C(=O)N[C@H](CCCNC(N)=O)C(=O)N[C@@H](Cc1c[nH]c2ccccc12)C(=O)N[C@@H](CC(C)C)C(=O)N1CCC[C@H]1C(=O)N[C@H](C)C(N)=O) [Trptorelix-3]”: the “effect … by GnRH-2” value in the experiment on Primate GnRH-2 receptor [2] is listed as “no effect”.
With [D-Ala^6]GnRH-1: the agonist of GnRH-1, the “effect / sensitivity in luciferase activation” value in the experiment on Primate GnRH-2 receptor [4] (compared with GnRH-2 or [D-Ala^6]GnRH-2) is on record as “very low sensitivity as compared with GnRH-2”. Also, the “Log EC50” value in the experiment with Primate GnRH-2 receptor [4] is −6.38 ± 0.10.
As for “p-Glu-His-Trp-Ser-His-D-Lys-Trp-Tyr-Pro-Gly-NH2 ([pGlu]HWSH[dK]WYPG-NH2; SMILES NCCCC[C@@H](NC(=O)[C@H](Cc1c[nH]cn1)NC(=O)[C@H](CO)NC(=O)[C@H](Cc1c[nH]c2ccccc12)NC(=O)[C@H](Cc1c[nH]cn1)NC(=O)[C@@H]1CCC(=O)N1)C(=O)N[C@@H](Cc1c[nH]c2ccccc12)C(=O)N[C@@H](Cc1ccc(O)cc1)C(=O)N1CCC[C@H]1C(=O)NCC(N)=O) [[D-Lys^6]GnRH-2]”, in the experiment on Primate GnRH-2 receptor [4], the “Log EC50” value is given as −8.57 ± 0.11.
Take “pGlu-His-Trp-Ser-His-D-Ala-Leu-Tyr-Pro-Gly-NH2 ([pGlu]HWSH[dA]LYPG-NH2; SMILES CC(C)C[C@H](NC(=O)[C@@H](C)NC(=O)[C@H](Cc1c[nH]cn1)NC(=O)[C@H](CO)NC(=O)[C@H](Cc1c[nH]c2ccccc12)NC(=O)[C@H](Cc1c[nH]cn1)NC(=O)[C@@H]1CCC(=O)N1)C(=O)N[C@@H](Cc1ccc(O)cc1)C(=O)N1CCC[C@H]1C(=O)NCC(N)=O) [[D-Ala^6, Leu^7]GnRH-2]”: the “Log EC50” value with Primate GnRH-2 receptor [4] is listed as −7.95 ± 0.10.
With “pGlu-His-Trp-Ser-His-D-Ala-Tyr-Trp-Pro-Gly-NH2 ([pGlu]HWSH[dA]YWPG-NH2; SMILES C[C@@H](NC(=O)[C@H](Cc1c[nH]cn1)NC(=O)[C@H](CO)NC(=O)[C@H](Cc1c[nH]c2ccccc12)NC(=O)[C@H](Cc1c[nH]cn1)NC(=O)[C@@H]1CCC(=O)N1)C(=O)N[C@@H](Cc1ccc(O)cc1)C(=O)N[C@@H](Cc1c[nH]c2ccccc12)C(=O)N1CCC[C@H]1C(=O)NCC(N)=O) [[D-Ala^6, Tyr^7, Trp^8]GnRH-2]”, the “Log EC50” value in the experiment on Primate GnRH-2 receptor [4] is on record as −7.57 ± 0.13.
Still for that read-out and setting: in the case of “pGlu-His-Trp-Ser-Leu-D-Ala-Trp-Tyr-Pro-Gly-NH2 ([pGlu]HWSL[dA]WYPG-NH2; SMILES CC(C)C[C@H](NC(=O)[C@H](CO)NC(=O)[C@H](Cc1c[nH]c2ccccc12)NC(=O)[C@H](Cc1c[nH]cn1)NC(=O)[C@@H]1CCC(=O)N1)C(=O)N[C@H](C)C(=O)N[C@@H](Cc1c[nH]c2ccccc12)C(=O)N[C@@H](Cc1ccc(O)cc1)C(=O)N1CCC[C@H]1C(=O)NCC(N)=O) [[Leu^5, D-Ala^6]GnRH-2]” it was −7.35 ± 0.12; in that of “pGlu-His-Trp-Ser-Tyr-D-Ala-Trp-Leu-Pro-Gly-NH2 ([pGlu]HWSY[dA]WLPG-NH2; SMILES CC(C)C[C@H](NC(=O)[C@H](Cc1c[nH]c2ccccc12)NC(=O)[C@@H](C)NC(=O)[C@H](Cc1ccc(O)cc1)NC(=O)[C@H](CO)NC(=O)[C@H](Cc1c[nH]c2ccccc12)NC(=O)[C@H](Cc1c[nH]cn1)NC(=O)[C@@H]1CCC(=O)N1)C(=O)N1CCC[C@H]1C(=O)NCC(N)=O) [[Tyr^5, D-Ala^6, Leu^8]GnRH-2]”, −7.90 ± 0.24.

The values are drawn from patent US7285528B2, “Agonists and antagonists of gonadotropin-releasing hormone-2, and use thereof” (priority 2002, dated 2007).
